Experimental data as given in patent publication US9394300B2, “Quinolone derivatives” (Cadila Healthcare Limited, priority 2012, dated 2016).

Assays:
C57 Mice [1] = assay: Estimating circulating EPO release in mice (plasma EPO by mouse EPO ELISA); assay type: in vivo; conditions: plasma six hours after administration, EPO in control = 62 ng/mL
Method: (1) Protocol for Estimating Circulating EPO Release in Mice
C57 Mice were administered various doses (10 mg/kg, 30 mg/kg, 50 mg/kg, 100 mg/kg) of compounds of the present invention by oral gavage at 10 ml/kg. Six hours after compound administration, mice were bled by retro-orbital puncture, under light ether anesthesia in microfuge tubes containing 2% EDTA (10 μl/100 μl of blood). Plasma was separated and analyzed for EPO content by mouse EPO ELISA.

C57 Mice [2] = assay: Estimating hemoglobin levels in mice; assay type: in vivo; conditions: oral once daily for 7 consecutive days at 20 mg/kg, whole blood on 8th day
Method: (2) Protocol for Estimating Hemoglobin Levels in Mice
C57 mice were administered compounds of the present invention at 10 ml/kg by oral route daily once in the morning for 7 consecutive days at 20 mg/kg. On 8th day animals were bled by retro-orbital puncture under light ether anesthesia in microfuge tubes containing 2% EDTA (10 μl/100 μl of blood) for whole blood. Hemoglobin, Reticulocyte count and RBC count were measured using standard procedures.

SMILES	EPO (ng/mL) oral gavage 10 mg/kg (C57 Mice [1]) [ng/mL]	EPO (ng/mL) oral gavage 50 mg/kg (C57 Mice [1]) [ng/mL]	further results
O=C(O)CNC(=O)c1c(O)c2ccccc2n(OCC2CC2)c1=O [Example 2, 2-(1-(cyclopropylmethoxy)-4-hydroxy-2-oxo-1,2-dihydroquinoline-3-carboxamido)acetic acid]	396		EPO (ng/mL) oral gavage 30 mg/kg (C57 Mice [1]): 4822 ng/mL; Hemoglobin (g/dL) 20 mg/kg compound (C57 Mice [2]): 16.3 g/dL
COc1ccc(COn2c(=O)c(C(=O)NCC(=O)O)c(O)c3ccccc32)cc1 [Example 67, 2-(4-hydroxy-1-((4-methoxybenzyl)oxy)-2-oxo-1,2-dihydroquinoline-3-carboxamido)acetic acid]		477	
CCCOn1c(=O)c(C(=O)NCC(=O)O)c(O)c2ccccc21 [Example 21, 2-(4-hydroxy-2-oxo-1-propoxy-1,2-dihydroquinoline-3-carboxamido) acetic acid]	190		EPO (ng/mL) oral gavage 30 mg/kg (C57 Mice [1]): 6234 ng/mL; Hemoglobin (g/dL) 20 mg/kg compound (C57 Mice [2]): 15.8 g/dL
O=C(O)CNC(=O)c1c(O)c2ccccc2n(OCc2ccc(C(F)(F)F)cc2)c1=O [Example 12, 2-(4-hydroxy-2-oxo-1-((4-(trifluoromethyl)benzyl)oxy)-1,2-dihydroquinoline-3-carboxamido)acetic acid]			EPO (ng/mL) oral gavage 100 mg/kg (C57 Mice [1]): 7056 ng/mL
COn1c(=O)c(C(=O)NCC(=O)O)c(O)c2ccccc21 [Example 11, 2-(4-hydroxy-1-methoxy-2-oxo-1,2-dihydroquinoline-3-carboxamido)acetic acid]			EPO (ng/mL) oral gavage 100 mg/kg (C57 Mice [1]): 1593 ng/mL
O=C(O)CNC(=O)c1c(O)c2ccccc2n(OCc2ccccc2F)c1=O [Example 62, 2-(1-((2-fluorobenzyl)oxy)-4-hydroxy-2-oxo-1,2-dihydroquinoline-3-carboxamido)acetic acid]		398	
C=CCOn1c(=O)c(C(=O)NCC(=O)O)c(O)c2ccccc21 [Example 15, 2-(1-(allyloxy)-4-hydroxy-2-oxo-1,2-dihydroquinoline-3-carboxamido)acetic acid]	315	4269	Hemoglobin (g/dL) 20 mg/kg compound (C57 Mice [2]): 13.2 g/dL
O=C(O)CNC(=O)c1c(O)c2ccc(Cl)cc2n(OCc2c(F)cccc2F)c1=O [Example 20, 2-(7-chloro-1-((2,6-difluorobenzyl)oxy)-4-hydroxy-2-oxo-1,2-dihydroquinoline-3-carboxamido)acetic acid]		3797	
CCOn1c(=O)c(C(=O)NCC(=O)O)c(O)c2ccccc21 [Example 63, 2-(1-ethoxy-4-hydroxy-2-oxo-1,2-dihydroquinoline-3-carboxamido)acetic acid]		539	
O=C(O)CNC(=O)c1c(O)c2ccccc2n(OCc2ccccc2)c1=O [Example 1, 2-(1-(benzyloxy)-4-hydroxy-2-oxo-1,2-dihydroquinoline-3-carboxamido)acetic acid]			EPO (ng/mL) oral gavage 100 mg/kg (C57 Mice [1]): 7118 ng/mL
O=C(O)CNC(=O)c1c(O)c2ccccc2n(OCc2c(F)cccc2F)c1=O [Example 16, 2-(1-((2,6-difluorobenzyl)oxy)-4-hydroxy-2-oxo-1,2-dihydroquinoline-3-carboxamido)acetic acid]	100	8043	
